Assay results as given in patent US8415344B2, “Method of treating depression” (Brookhaven Science Associates, LLC, priority 2009, dated 2013).

How the values were obtained:
[1] = Rothstein et al.; Lipski et al.; cited from earlier work
[2] = tested on: rats exhibiting learned helplessness (cLH rat line); assay: Learned helplessness testing (lever-press escape paradigm) of cLH rats pre- and post-treatment; assay type: in vivo; details: oral diazoxide dissolved in NaOH, 10, 30 or 60 mg per day, three days
Protocol: At the age of 9 weeks, male rats are tested for learned helplessness. Testing consists of an escape paradigm, were 0.8 mA, 60 sec foot-shocks can be interrupted with a lever press. A trial not terminated within 20 seconds is considered a failure, and 10 or more failed trials out of 15 trials are treated as “helpless” phenotype. cNLH animals are exposed to a total of 20 unpredictable, unescapable foot-shocks (0.8 mA, 60 sec) 24 hours prior to testing. Five rats from the cLH rat line described in Example I are provided with orally administered diazoxide dissolved in NaOH over a period of three days. Two animals received 60 mg per day two received 30 mg, and one received 10 mg. Three rats in the control group received no treatment.

[3] = tested on: astrocyte glutamate transporters; details: Sun et al.; cited from earlier work

| SMILES | effectiveness in studies of neuroprotection [1] | number of lever presses post-treatment relative to pre-treatment [2] | stimulating the uptake of glutamate by astrocyte glutamate transporters [3] |
| --- | --- | --- | --- |
| CO/N=C(\C(=O)N[C@@H]1C(=O)N2C(C(=O)O)=C(CSc3nc(=O)c(=O)[nH]n3C)CS[C@H]12)c1csc(N)n1 [Ceftriaxone] | particularly effective |  |  |
| CC1=NS(=O)(=O)c2cc(Cl)ccc2N1 [diazoxide] |  | substantial increase in the number of lever presses | shown to be effective |
| CC(C)NC(C)(C)C(C)C [iptakalim] |  |  | shown to be effective |
| CC(N/C(=N\C#N)Nc1ccncc1)C(C)(C)C (centres unmarked) [pinacidil] |  |  | shown to be effective |
